Key:
Format in all cases: in vivo
Details in all cases: Postemergence
corn (Zea mays) = assay: Test B pre-/postemergence plant response
Summary of the method: (§1)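 Steps: sow seed in loam–sand soil and spray preemergence, or grow plants in peat-based medium to 1–4 leaves (2–18 cm) and spray postemergence; formulation is non-phytotoxic solvent plus surfactant; hold in greenhouse 13–15 days; score visually vs controls, 0 = no effect, 100 = complete control.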

[1] = tested on: morningglory (Ipomoea coccinea); assay: Test B pre-/postemergence plant response
Summary of the method: as §1

[2] = tested on: cocklebur (Xanthium strumarium); assay: Test B pre-/postemergence plant response
Summary of the method: as §1

[3] = tested on: giant foxtail (Setaria faberii); assay: Test B pre-/postemergence plant response
Summary of the method: as §1

soybean (Glycine max) = assay: Test B pre-/postemergence plant response
Summary of the method: as §1

[4] = tested on: blackgrass (Alopecurus myosuroides); assay: Test B pre-/postemergence plant response
Summary of the method: as §1

[5] = tested on: johnsongrass (Sorghum halepense); assay: Test B pre-/postemergence plant response
Summary of the method: as §1

wild oat (Avena fatua) = assay: Test B pre-/postemergence plant response
Summary of the method: as §1

[6] = tested on: bermudagrass (Cynodon dactylon); assay: Test B pre-/postemergence plant response
Summary of the method: as §1

kochia (Kochia scoparia) = assay: Test B pre-/postemergence plant response
Summary of the method: as §1

[7] = tested on: winter barley (Hordeum vulgare); assay: Test B postemergence plant response
Summary of the method: (§2)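 Plants grown in peat/vermiculite medium were sprayed postemergence at 2–18 cm height (1- to 4-leaf stage). After 13–15 days in the greenhouse, response was rated visually against untreated controls on a 0–100 scale (0 no effect, 100 complete control).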

[8] = tested on: windgrass (Apera spica-venti); assay: Test B postemergence plant response
Summary of the method: as §2

[9] = tested on: canarygrass (Phalaris minor); assay: Test B postemergence plant response
Summary of the method: as §2

[10] = tested on: chickweed (Stellaria media); assay: Test B postemergence plant response
Summary of the method: as §2

[11] = 31 g ai/ha, 0 to 100 scale (0 no effect, 100 complete control)
[12] = 62 g ai/ha, scale 0 to 100 (0 no effect, 100 complete control)
[13] = 125 g ai/ha, scale 0 to 100 (0 no effect, 100 complete control)
[14] = 250 g ai/ha, scale 0 to 100 (0 no effect, 100 complete control), 13 to 15 days
[15] = 125 g ai/ha, scale 0 (no effect) to 100 (complete control), 13 to 15 days

COCCn1c(-c2cccc(C)c2)ncc(C(=O)C2=C(O)C3CCC(C3)C2=O)c1=O (stereo not drawn) [Compound 233]
25: Plant response rating, Johnsongrass [5, 13] | Plant response rating, Johnsongrass [5, 14]
95: Plant response rating, Foxtail, Giant [3, 12] | Plant response rating, Bermudagrass [6, 11] | Plant response rating, Bermudagrass [6, 12] | Plant response rating, Chickweed [10, 12]
70: Plant response rating, Kochia (kochia (Kochia scoparia); [11])
20: Plant response rating, Canarygrass [9, 14]
98: Plant response rating, Morningglory [1, 13] | Plant response rating, Foxtail, Giant [3, 13] | Plant response rating, Foxtail, Giant [3, 14] | Plant response rating, Soybean (soybean (Glycine max); [11]) | Plant response rating, Soybean (soybean (Glycine max); [12])
80: Plant response rating, Morningglory [1, 12]
30: Plant response rating, Corn (corn (Zea mays); [11]) | Plant response rating, Blackgrass [4, 12] | Plant response rating, Blackgrass [4, 13] | Plant response rating, Oat, Wild (wild oat (Avena fatua); [11])
0: Plant response rating, Johnsongrass [5, 11] | Plant response rating, Barley [7, 11] | Plant response rating, Barley [7, 12] | Plant response rating, Canarygrass [9, 11]
35: Plant response rating, Oat, Wild (wild oat (Avena fatua); [12])
90: Plant response rating, Cocklebur [2, 11] | Plant response rating, Foxtail, Giant [3, 11] | Plant response rating, Chickweed [10, 11]
65: Plant response rating, Morningglory [1, 11]
5: Plant response rating, Blackgrass [4, 11] | Plant response rating, Johnsongrass [5, 12] | Plant response rating, Canarygrass [9, 12]
60: Plant response rating, Oat, Wild (wild oat (Avena fatua); [14]) | Plant response rating, Windgrass [8, 14]
10: Plant response rating, Barley [7, 13] | Plant response rating, Barley [7, 14] | Plant response rating, Canarygrass [9, 13]
55: Plant response rating, Windgrass [8, 12]
50: Plant response rating, Corn (corn (Zea mays); [12]) | Plant response rating, Blackgrass [4, 14] | Plant response rating, Windgrass [8, 11]
85: Plant response rating, Corn (corn (Zea mays); [13]) | Plant response rating, Corn (corn (Zea mays); [14]) | Plant response rating, Kochia (kochia (Kochia scoparia); [12])
100: Plant response rating, Morningglory [1, 14] | Plant response rating, Cocklebur [2, 12] | Plant response rating, Cocklebur [2, 13] | Plant response rating, Cocklebur [2, 14] | Plant response rating, Soybean (soybean (Glycine max); [14]) | Plant response rating, Bermudagrass [6, 13] | Plant response rating, Bermudagrass [6, 14] | Plant response rating, Chickweed [10, 13] | Plant response rating, Chickweed [10, 14]

CCn1c(-c2ccccc2)ncc(C(=O)C2=C(O)C3CCC(C3)C2=O)c1=O (stereo not drawn) [Compound 239]
20: Plant response rating, Johnsongrass [5, 12] | Plant response rating, Windgrass [8, 11]
50: Plant response rating, Blackgrass [4, 14]
98: Plant response rating, Foxtail, Giant [3, 14] | Plant response rating, Soybean (soybean (Glycine max); [15]) | Plant response rating, Soybean (soybean (Glycine max); [14]) | Plant response rating, Kochia (kochia (Kochia scoparia); [12]) | Plant response rating, Kochia (kochia (Kochia scoparia); [15]) | Plant response rating, Kochia (kochia (Kochia scoparia); [14]) | Plant response rating, Chickweed [10, 12] | Plant response rating, Chickweed [10, 15]
60: Plant response rating, Johnsongrass [5, 15]
85: Plant response rating, Foxtail, Giant [3, 12]
100: Plant response rating, Morningglory [1, 15] | Plant response rating, Morningglory [1, 14] | Plant response rating, Cocklebur [2, 12] | Plant response rating, Cocklebur [2, 15] | Plant response rating, Cocklebur [2, 14] | Plant response rating, Bermudagrass [6, 12] | Plant response rating, Bermudagrass [6, 15] | Plant response rating, Bermudagrass [6, 14] | Plant response rating, Chickweed [10, 14]
5: Plant response rating, Corn (corn (Zea mays); [11]) | Plant response rating, Blackgrass [4, 11] | Plant response rating, Blackgrass [4, 12] | Plant response rating, Oat, Wild (wild oat (Avena fatua); [12]) | Plant response rating, Oat, Wild (wild oat (Avena fatua); [15]) | Plant response rating, Barley [7, 15] | Plant response rating, Barley [7, 14]
75: Plant response rating, Corn (corn (Zea mays); [14]) | Plant response rating, Foxtail, Giant [3, 11]
30: Plant response rating, Blackgrass [4, 15] | Plant response rating, Oat, Wild (wild oat (Avena fatua); [14]) | Plant response rating, Windgrass [8, 12] | Plant response rating, Windgrass [8, 15]
0: Plant response rating, Johnsongrass [5, 11] | Plant response rating, Oat, Wild (wild oat (Avena fatua); [11]) | Plant response rating, Barley [7, 11] | Plant response rating, Barley [7, 12] | Plant response rating, Canarygrass [9, 11] | Plant response rating, Canarygrass [9, 12] | Plant response rating, Canarygrass [9, 15] | Plant response rating, Canarygrass [9, 14]
70: Plant response rating, Soybean (soybean (Glycine max); [11]) | Plant response rating, Windgrass [8, 14]
45: Plant response rating, Corn (corn (Zea mays); [12]) | Plant response rating, Corn (corn (Zea mays); [15])
95: Plant response rating, Morningglory [1, 11] | Plant response rating, Soybean (soybean (Glycine max); [12]) | Plant response rating, Bermudagrass [6, 11]
90: Plant response rating, Cocklebur [2, 11] | Plant response rating, Foxtail, Giant [3, 15] | Plant response rating, Kochia (kochia (Kochia scoparia); [11]) | Plant response rating, Chickweed [10, 11]

Reference: patent publication US8952024B2, “Herbicidal pyrimidone derivatives” (E I du Pont de Nemours and Company, priority 2009, dated 2015)
